According to ChEMBL document CHEMBL1135189, “Discovery of non-zwitterionic GABA(A) receptor full agonists and a superagonist” (Bioorg Med Chem Lett, 2002):

How the values were obtained:
Type in all cases: functional
[1] = target: GABA-A receptor; anion channel; test: Activation of chloride ion uptake into mouse brain synaptoneurosomes, no net uptake at […]
[2] = target: T1, GABA-A receptor; anion channel (Mus musculus) (UniProt Q8BHJ7+P26048+Q8QZW7+P50571+Q9R0Y8+P22723+A2AMW3+P62812+Q9JLF1+P26049+P22933+Q9D6F4+P63080+P27681+P16305); test: Agonistic activity against GABA-A receptor chloride uptake, partial agonist
[3] = target: GABA-A receptor; anion channel; test: Activation of chloride ion uptake into mouse brain synaptoneurosomes
[4] = target: T1, GABA-A receptor; anion channel (Mus musculus); test: Agonistic activity against GABA-A receptor chloride uptake, full agonist
[5] = target: T1, GABA-A receptor; anion channel (Mus musculus); test: Agonistic activity against GABA-A receptor chloride uptake, super-agonist

Row | Emax [2] | EC50 [3] [µM] | Emax [4] | Structure (SMILES) | also measured
1 |  |  |  | NCCCC(=O)NCCNCC(=O)O | EC50 [1]: > 4000 µM
2 | 264 | 733 |  | NCCCC(=O)NCCNC(=O)CCCN | 
3 | 362 | 340 |  | CCCCNC(=O)CCCN | 
4 |  | 643 | 433 | NCCCC(=O)NCCCCCCNC(=O)CCCN | 
5 |  |  |  | NCCCC(=O)NCCN | EC50 [1]: > 4000 µM
6 |  | 1140 | 497 | NCCCCNC(=O)CCCN | 
7 |  | 475 |  | NCCCC(=O)NCCCCNC(=O)CCCN | Emax [5]: 578
8 | 307 | 317 |  | NCCCC(N)=O | 
9 |  | 414 | 549 | CC(=O)NCCCCNC(=O)CCCN | 

Row | Structure (SMILES) | Emax [2] | EC50 [3] [µM] | Emax [4] | also measured
10 | Oc1noc2c1CCNC2 [GABOXADOL] |  | 335 |  | 
